In PubChem BioAssay (NCI):
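Each compound was tested at five concentrations against cells in 96-well plates for 48 hours. TGI is the concentration that stops growth completely.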

What was measured:
Experiment in all cases: NCI anticancer screen, dose series, 48 h
786-0 renal = test system: 786-0 renal
A498 renal = test system: A498 renal
A549 NSCLC = test system: A549 NSCLC
ACHN renal = test system: ACHN renal
BT-549 breast = test system: BT-549 breast
CAKI-1 renal = test system: CAKI-1 renal
CCRF-CEM leukemia = test system: CCRF-CEM leukemia
COLO 205 colon = test system: COLO 205 colon
DU-145 prostate = test system: DU-145 prostate
EKVX NSCLC = test system: EKVX NSCLC
HCC-2998 colon = test system: HCC-2998 colon
HCT-116 colon = test system: HCT-116 colon
HCT-15 colon = test system: HCT-15 colon
HL-60(TB) leukemia = test system: HL-60(TB) leukemia
HOP-62 NSCLC = test system: HOP-62 NSCLC
HOP-92 NSCLC = test system: HOP-92 NSCLC
HS 578T breast = test system: HS 578T breast
HT29 colon = test system: HT29 colon
IGROV1 ovarian = test system: IGROV1 ovarian
K-562 leukemia = test system: K-562 leukemia
KM12 colon = test system: KM12 colon
LOX IMVI melanoma = test system: LOX IMVI melanoma
M14 melanoma = test system: M14 melanoma
MALME-3M melanoma = test system: MALME-3M melanoma
MCF7 breast = test system: MCF7 breast
MDA-MB-231 breast = test system: MDA-MB-231 breast
MDA-MB-435 = test system: MDA-MB-435
MOLT-4 leukemia = test system: MOLT-4 leukemia
NCI-H226 lung = test system: NCI-H226 lung
NCI-H23 lung = test system: NCI-H23 lung
NCI-H460 lung = test system: NCI-H460 lung
NCI-H522 lung = test system: NCI-H522 lung
NCI/ADR-RES ovarian = test system: NCI/ADR-RES ovarian
OVCAR-3 ovarian = test system: OVCAR-3 ovarian
OVCAR-4 ovarian = test system: OVCAR-4 ovarian
OVCAR-5 ovarian = test system: OVCAR-5 ovarian
OVCAR-8 ovarian = test system: OVCAR-8 ovarian
PC-3 prostate = test system: PC-3 prostate
RPMI-8226 leukemia = test system: RPMI-8226 leukemia
RXF 393 renal = test system: RXF 393 renal
SF-268 CNS = test system: SF-268 CNS
SF-295 CNS = test system: SF-295 CNS
SF-539 CNS = test system: SF-539 CNS
SK-MEL-2 melanoma = test system: SK-MEL-2 melanoma
SK-MEL-28 melanoma = test system: SK-MEL-28 melanoma
SK-MEL-5 melanoma = test system: SK-MEL-5 melanoma
SK-OV-3 ovarian = test system: SK-OV-3 ovarian
SN12C renal = test system: SN12C renal
SNB-19 CNS = test system: SNB-19 CNS
SNB-75 CNS = test system: SNB-75 CNS
SR leukemia = test system: SR leukemia
SW-620 colon = test system: SW-620 colon
T-47D breast = test system: T-47D breast
TK-10 renal = test system: TK-10 renal
UACC-257 melanoma = test system: UACC-257 melanoma
UACC-62 melanoma = test system: UACC-62 melanoma
UO-31 renal = test system: UO-31 renal

C[C@]12CC[C@H]3[C@@H](CC=C4C[C@@H](O)CC[C@@]43C)[C@@H]1C/C(=C\c1ccc([N+](=O)[O-])cc1)[C@@H]2O
TGI (786-0 renal): 22.8 µM | TGI (A498 renal): 42.4 µM | TGI (A549 NSCLC): 25.1 µM | TGI (ACHN renal): 24.4 µM | TGI (BT-549 breast): 38 µM | TGI (CAKI-1 renal): 36.8 µM | TGI (CCRF-CEM leukemia): > 100 µM | TGI (COLO 205 colon): > 100 µM | TGI (DU-145 prostate): 23 µM | TGI (EKVX NSCLC): 26.5 µM | TGI (HCC-2998 colon): 30.4 µM | TGI (HCT-116 colon): 14 µM | TGI (HCT-15 colon): > 100 µM | TGI (HL-60(TB) leukemia): 80.9 µM | TGI (HOP-62 NSCLC): 27.7 µM | TGI (HOP-92 NSCLC): 91.7 µM | TGI (HS 578T breast): > 100 µM | TGI (HT29 colon): 20.6 µM | TGI (IGROV1 ovarian): > 100 µM | TGI (K-562 leukemia): > 100 µM | TGI (KM12 colon): > 100 µM | TGI (LOX IMVI melanoma): > 100 µM | TGI (M14 melanoma): > 100 µM | TGI (MALME-3M melanoma): 53 µM | TGI (MCF7 breast): 19.6 µM | TGI (MDA-MB-231 breast): 22.6 µM | TGI (MDA-MB-435): > 100 µM | TGI (MOLT-4 leukemia): > 100 µM | TGI (NCI-H226 lung): 55.2 µM | TGI (NCI-H23 lung): 51.7 µM | TGI (NCI-H460 lung): 72.9 µM | TGI (NCI-H522 lung): 32.7 µM | TGI (NCI/ADR-RES ovarian): 48.4 µM | TGI (OVCAR-3 ovarian): 37.1 µM | TGI (OVCAR-4 ovarian): 3.7 µM | TGI (OVCAR-5 ovarian): 78.4 µM | TGI (OVCAR-8 ovarian): 36.9 µM | TGI (PC-3 prostate): 33.5 µM | TGI (RPMI-8226 leukemia): > 100 µM | TGI (RXF 393 renal): 21.4 µM | TGI (SF-268 CNS): > 100 µM | TGI (SF-295 CNS): 46.5 µM | TGI (SF-539 CNS): 34.5 µM | TGI (SK-MEL-2 melanoma): 52.9 µM | TGI (SK-MEL-28 melanoma): 57.6 µM | TGI (SK-MEL-5 melanoma): 23.2 µM | TGI (SK-OV-3 ovarian): 28.1 µM | TGI (SN12C renal): 22.9 µM | TGI (SNB-19 CNS): 38.7 µM | TGI (SNB-75 CNS): 32.1 µM | TGI (SR leukemia): > 100 µM | TGI (SW-620 colon): > 100 µM | TGI (T-47D breast): 29.5 µM | TGI (TK-10 renal): 55.2 µM | TGI (UACC-257 melanoma): 59 µM | TGI (UACC-62 melanoma): 34.1 µM | TGI (UO-31 renal): 24.4 µM
